Experiment [1] has as its system MV4-11 (FLT3 ITD+/+ mutant type). Nature of the experiment: In vitro growth inhibition (GI50), MV4-11. In kind it is cell-based, human. The conditions noted are these: for GI50: Homo sapiens; for inhibition activity against the growth of MV4-11 cells compared with AC220: compared with the control compound AC220; for growth inhibitory effect on MV4-11 (in words): FLT3-ITD positive cell line MV4-11.

Experiment [2] has as its system NCI-H2228 (expressing EML4-ALK fusion gene). Nature of the experiment: In vitro growth inhibition (GI50), NCI-H2228. In kind it is cell-based. The conditions noted are these: Homo sapiens. The text has this:
Tumor cell line is an effective cell model for studying the inhibition of tumor cell growth or proliferation in vitro. In the present invention, a representative tumor cell line was selected to determine the cell growth inhibition activity of the present compound. All cell lines used were from ATCC, DSMZ, and the Cell Bank of the Chinese Academy of Sciences. Cell culture conditions and methods were in accordance with the requirements of each cell line. Cells were subcultured in vitro for no more than 3 passages each time, and as required, single-clone purification and identification of cell lines could be carried out.
The cell culture media used were RPMI1640 (Gibco), MEM (Gibco), McCOY'S5A (Gibco), and IMDM (Gibco). The complete medium was prepared by supplement with 5˜20% fetal calf serum (Gibco), 1% double-antibiotics (10000 units/mL penicillin and 10000 units/mL), 2 mM glutamine or 1 mM sodium pyruvate, respectively.
Human non-small cell lung cancer cell line NCI-H2228 (expressing EML4-ALK fusion gene, ATCC) and human anaplastic large cell lymphoma cell line Karpas-299 (expressing NPM-ALK fusion gene, ATCC) were cultured in complete medium comprising 1×RPMI1640 (10% FBS), respectively. Neuroblastoma cell line SH-SY5Y (expressing ALK F1174L mutant protein, Shanghai Cell Bank, Chinese Academy of Sciences) was cultured in MEM complete medium (1×MEM, 10% FBS, 1% NEAA, 1 mM sodium pyruvate).
Adherent cells were digested with 0.25% pancreatin-EDTA (Gibco). The suspension cells were collected by centrifugation. The supernatant was discarded and the cell pellet was resuspended and counted. Different cell concentrations (5˜10×10^4 cells/mL) were prepared according to the growth cycle of each cell line and then seeded on a 96-well plate (Corning), 100 μL/well. The cells were incubated overnight at 37° C., 5% CO2. The compounds were added to the cells on the second day with 2 wells in parallel. The final concentration of organic solvent shall not exceed 1%. The cells were continually incubated for 3 to 5 days, and then subjected to MTT assay.
The compound of the present invention and the control compound were dissolved in DMSO (Sigma) respectively, with the purity of more than 98%. The compound was stored in a concentration of 10 mM at −20° C. and diluted to 2- or 10-fold series prior to use.
Dojindo CCK8 reagent kit was used as MTT assay. THERMO […] FC meter was used as microplate reader.
For adherent cells, culture medium was removed and immediately replaced with the fresh prepared medium which contains 10% CCK8 reagent (100 μL/well). For the suspension cells, CCK8 was directly added to 10% of the final concentration. The cells were continually incubated for 1˜4 h. When a dark yellow color could be observed in the solvent control wells, the absorbance value at OD450 nm was measured and the cell growth rate was calculated according to the following formula: Cell Growth Rate (%)=100*(T−T0)/(C−T0) T=optical density of drug treatment cell well—optical density of blank control well; T0=optical density of cell well before drug treatment—optical density of blank control well; C=optical density of cell well of solvent control group—optical density of blank control well. The concentration value of 50% inhibition of cell growth (GI50) was calculated according to the drug concentration and cell growth rate curve. The experiment was independently repeated 1˜3 times, and subject to biological statistical analysis. 4. Experimental Results
Tumor cell growth inhibition test was performed by selecting representative compounds (compounds 4, 11, 12, 16, 27, 68, 71, 77, 79, 89 and 116 of the present invention). The initial concentration of the compound was 5,000 nM, then it was serially diluted by 2-fold or 10-fold to 0.01 nM. The GI50 value of each test compound was calculated according to the GI50 assay and calculation method. The experiments were repeated 1 to 3 times, and data were subjected to biological statistical analysis.

In experiment [3] the test system is KG-1 (expressing FGFR1OP2-FGFR1 fusion protein). The experiment in a line: In vitro growth inhibition (GI50), KG-1. To be noted: Homo sapiens; Cell lines of leukemia; read-out: GI 50 KG-1 FGFR1OP 2-FGFR1. In kind it is cell-based.
[4] abbreviates: MV4-11, Cell lines of leukemia, read-out: GI 50 MV4-11 FLT3 (ITD +/+).
[5] abbreviates: FLT3-ITD positive-expressing cell line MV4-11, Table 3, read-out: GI50 value, MV4-11.
The mark [6] stands for this setting: MV4-11, FLT3 ITD +/+, read-out: GI50.

The record followed here is patent US10647680B2, “Urea compound, preparation method therefor and medical use thereof” (Ancureall Pharmaceutical (Shanghai) Co., Ltd., priority 2016, dated 2020).

Like-named read-outs stand apart in the source and are kept apart here.

On to `CC(C)(C)c1cc(NC(=O)Nc2ccc(-n3cnc4cc(OCCN5CCOCC5)ccc43)cc2)[nH]n1` [Compound 89, 1-(5-tert-butyl-2H-pyrazol-3-yl)-3-{4-[5-(2-morpholin-4-yl-ethoxyl)-benzimidazol-1-yl]-phenyl}-urea], for which the GI50 was 0.01 to 0.1 nM in experiment [1] (setting [4]); 0.039 to 0.8 nM in experiment [1] (setting [5]); 0.041 nM in experiment [1] (setting [6]); over 2500 nM in experiment [2]; over 1000 nM in experiment [3]. For the same molecule, the “inhibition activity against the growth of MV4-11 cells compared with AC220” value (from here on “inhibition activity … compared with AC220”) in experiment [1] is “stronger inhibition activity”.
Regarding `CC(C)(C)c1cc(NC(=O)Nc2ccc(-n3cnc4cc(O)ccc43)cc2)no1` [Compound 4, 1-(5-tert-butyl-isoxazol-3-yl)-3-[4-(5-hydroxy-benzimidazol-1-yl)-phenyl]-urea], the “growth inhibitory effect on MV4-11 (in words)” value (“growth inhibitory effect” below) in experiment [1] is on record as “strong growth inhibitory effects”. The GI50 in experiment [1] (setting [4]) was 0.1 to 1 nM; in experiment [1] (setting [6]), 0.12 nM; in experiment [2], over 2500 nM; in experiment [3] it was 100 to 1000 nM.
Regarding `CC(C)(C)c1cc(NC(=O)Nc2ccc(-n3cnc4cc(OCCO)ccc43)cc2)no1` [Compound 11, 1-(5-tert-butyl-isoxazol-3-yl)-3-{4-[5-(2-hydroxy-ethoxyl)-benzimidazol-1-yl]-phenyl]-urea], in experiment [1], the “growth inhibitory effect” value is on record as “strong growth inhibitory effects”. The GI50 is 0.01 to 0.1 nM in experiment [1] (setting [4]), 0.07 nM in experiment [1] (setting [6]), over 2500 nM in experiment [2] and over 1000 nM in experiment [3]. Further, the “inhibition activity … compared with AC220” value in experiment [1] was “stronger inhibition activity”.
As for `COCCOc1ccc2c(c1)ncn2-c1ccc(NC(=O)Nc2cc(C(C)(C)C)n[nH]2)cc1` [Compound 77, 1-(5-tert-butyl-2H-pyrazol-3-yl)-3-{4-[5-(2-methoxyl-ethoxyl)-benzimidazol-1-yl]-phenyl}-urea], the GI50 is 0.01 to 0.1 nM in experiment [1] (setting [4]); 0.039 to 0.8 nM in experiment [1] (setting [5]); 0.093 nM in experiment [1] (setting [6]); over 2500 nM in experiment [2]; over 1000 nM in experiment [3]. The “inhibition activity … compared with AC220” value in experiment [1] is “stronger inhibition activity”.
For `CC(C)(C)c1cc(NC(=O)Nc2ccc(-n3cnc4ccccc43)cc2)[nH]n1` [Compound 68, 1-(4-benzimidazol-1-yl-phenyl)-3-(5-tert-butyl-2H-pyrazol-3-yl)-urea], the GI50 in experiment [1] (setting [4]) is 0.1 to 1 nM; in experiment [1] (setting [5]), 0.039 to 0.8 nM; in experiment [1] (setting [6]) it was 0.48 nM; in experiment [2] it was over 2500 nM; in experiment [3], over 1000 nM.
Turning to `CC(C)(C)c1cc(N)n(C(=O)Nc2ccc(-n3cnc4ccccc43)cc2)n1` [Compound 116, 5-amino-3-tert-butyl-pyrazol-1-carboxylic acid (4-benzimidazol-1-yl-phenyl)-amide], the GI50 is 10 to 100 nM in experiment [1] (setting [4]); 0.039 to 0.8 nM in experiment [1] (setting [5]); 1.51 nM in experiment [1] (setting [6]); over 2500 nM in experiment [2]; over 1000 nM in experiment [3].
The like results for `CC(C)(C)c1cc(NC(=O)Nc2ccc(-n3cnc4cc(OCCN5CCOCC5)ccc43)cc2)no1` [Compound 16, 1-(5-tert-butyl-isoxazol-3-yl)-3-{4-[5-(2-morpholin-4-yl-ethoxyl)-benzimidazol-1-yl]-phenyl}-urea] were, in that order, 0.1 to 1 nM, 0.039 to 0.8 nM, 0.48 nM, over 2500 nM and over 1000 nM.
On to `COc1ccc2c(c1)ncn2-c1ccc(NC(=O)Nc2cc(C(C)(C)C)n[nH]2)cc1` [Compound 71, 1-(5-tert-butyl-2H-pyrazol-3-yl)-3-[4-(5-methoxyl-benzimidazol-1-yl)-phenyl]-urea], for which the GI50 is 0.01 to 0.1 nM in experiment [1] (setting [4]); 0.039 to 0.8 nM in experiment [1] (setting [5]); 0.039 nM in experiment [1] (setting [6]); over 2500 nM in experiment [2]; over 1000 nM in experiment [3]. For the same molecule, in experiment [1], the “inhibition activity … compared with AC220” value is listed as “stronger inhibition activity”.
Turning to `CC(C)(C)c1cc(NC(=O)Nc2ccc(-n3cnc4cc(OCCO)ccc43)cc2)[nH]n1` [Compound 79, 1-(5-tert-butyl-2H-pyrazol-3-yl)-3-{4-[5-(2-hydroxy-ethoxyl)-benzimidazol-1-yl]-phenyl]urea], in experiment [1], the “growth inhibitory effect” value was “strong growth inhibitory effects”. Moreover, the GI50 in experiment [1] (setting [4]) was 0.01 to 0.1 nM; in experiment [1] (setting [6]) it was 0.047 nM; in experiment [2], over 2500 nM; in experiment [3], over 1000 nM. In addition, the “inhibition activity … compared with AC220” value in experiment [1] is “stronger inhibition activity”.
Regarding `CC(C)(C)c1cc(NC(=O)Nc2ccc(-n3cnc4ccc(OCCN5CCOCC5)cc43)cc2)no1` [Compound 27, 1-(5-tert-butyl-isoxazol-3-yl)-3-{4-[6-(2morpholin-4-yl-ethoxyl)-benzimidazol-1-yl]-phenyl}-urea], the GI50 was 0.1 to 1 nM in experiment [1] (setting [4]); 0.039 to 0.8 nM in experiment [1] (setting [5]); 0.78 nM in experiment [1] (setting [6]); over 2500 nM in experiment [2]; 100 to 1000 nM in experiment [3].
